≈ marks a conversion by molar mass, not a printed value.

Assay in all cases: Broth microdilution MIC/MBC
Common to all, as to type: cell-based, Vibrio cholerae

For one assay, the system named is V. cholerae CO6. The protocol:
(§1) A total of six bacterial strains were tested for their susceptibility to compounds and these strains were taken from our laboratory collection (kindly provided by Dr. T. Ramamurthy, NICED, Kolkata). Among the clinical strains of Vibrio cholerae used in this study, strains NB2 and SG24 and CO6 belonged to O1 and O139 serotypes, respectively. […]. The other strains used in this study were V. cholerae non-O1, non-O139 (strain PC2); […]. The American Type Culture Collection (ATCC) strain, Staphylococcus aureus ATCC 25923, was used for quality control. The bacterial strains were maintained on agar slant at 4 °C and subcultured on a fresh appropriate agar plates 24 h prior to any antibacterial test. The Mueller Hinton Agar (MHA) was used for the activation of bacteria. The Mueller Hinton Broth (MHB) and nutrient agar (Hi-Media) were used for the MIC and MBC determinations respectively.
(§2) Suspensions of bacteria were prepared in MHB from cells arrested during their logarithmic phase growth (4 h) on MHB at 37 °C. The turbidity of the microbial suspension was read spectrophotometrically at 600 nm and adjusted to an OD of 0.1 with MHB, which is equivalent to 1 × 10^8 CFU/mL. From this prepared solution, other dilutions were made with MHB to yield 1x10^6 CFU/mL.
(§3) MIC and MBC of compounds 1–3 were assessed using the broth microdilution method recommended by the National Committee for Clinical Laboratory Standards with slight modifications. Each test sample was dissolved in dimethylsulfoxide (DMSO) to give a stock solution. The 96-well round bottom sterile plates were prepared by dispensing 180 μL of the inoculated broth (1x10^6 CFU/mL) into each well. A 20 μL aliquot of the stock solution of compound was added. The concentrations of sample tested were 0.125, 0.25, 0.50, 1, 2, 4, 8, 16, 32, 64, 128, 256 and 512 μg/mL. […] Dilutions of tetracycline and ampicillin served as positive controls, while broth with 20 μL of DMSO was used as negative control. The ATCC strain Staphylococcus aureus ATCC 25923 was included for quality assurance purposes. Plates were covered and incubated for 24 h at 37 °C. After incubation, minimum inhibitory concentrations (MIC) were read visually; all wells were plated to nutrient agar (Hi-Media) and incubated. The minimal bactericidal concentration (MBC) was defined as a 99.9% reduction in CFU from the starting inoculums after 24 h incubation interval.

A further assay deals with V. cholerae SG24. The following applies: Vibrio cholerae. The protocol: as §1, §2, §3
In the next assay the test system is V. cholerae NB2. The protocol: as §1, §2, §3
In a further assay the test system is V. cholerae PC2. The protocol: as §1, §2, §3

`C=C1[C@@H](C)C2[C@H](Cc3ccccc3)NC(=O)[C@@]23C(/C=C/C[C@H](C)C[C@@](C)(O)/C=C/[C@H]3OC(C)=O)[C@@H]1O` (some centres unmarked) [Compound 2, cytochalasin H]: in the assay with V. cholerae CO6 (SI = LC50 on Vero cells / MIC), the “Selectivity Index V. cholerae CO6” value came to 0.25. Moreover, the MBC/MIC in the assay on V. cholerae CO6 (V. cholerae CO6), against V. cholerae NB2 (V. cholerae NB2) and against V. cholerae PC2 (V. cholerae PC2) was 1 throughout. Moreover, the MBC in the assay on V. cholerae CO6 (Vibrio cholerae, V. cholerae CO6, 99.9% reduction in CFU after 24 h) was 512 µg/mL (≈ 1040 µM); with V. cholerae SG24 (99.9% reduction in CFU after 24 h) it was above 512 µg/mL; in the assay with V. cholerae NB2 (Vibrio cholerae, V. cholerae NB2, 99.9% reduction in CFU after 24 h) it was 512 µg/mL (≈ 1040 µM); in the assay on V. cholerae PC2 (Vibrio cholerae, V. cholerae PC2, 99.9% reduction in CFU after 24 h) it was 256 µg/mL (≈ 519 µM). Besides, the MIC was 512 µg/mL (≈ 1040 µM) with V. cholerae CO6 (Vibrio cholerae, V. cholerae CO6, 24 h at 37 °C); above 512 µg/mL against V. cholerae SG24 (24 h at 37 °C); 512 µg/mL (≈ 1040 µM) in the assay on V. cholerae NB2 (Vibrio cholerae, V. cholerae NB2, 24 h at 37 °C, read-out: MIC); 256 µg/mL (≈ 519 µM) in the assay with V. cholerae PC2 (Vibrio cholerae, V. cholerae PC2, 24 h at 37 °C, read-out: MIC). Further, in the assay with V. cholerae NB2 (SI = LC50 on Vero cells / MIC), the “Selectivity Index V. cholerae NB2” value is given as 0.25. Moreover, in the assay on V. cholerae PC2 (SI = LC50 on Vero cells / MIC), the “Selectivity Index V. cholerae PC2” value was 0.50.
